# Results taken from ChEMBL document CHEMBL3885861, “Open TG-GATES”.
# Organism: Rattus norvegicus
# Experiment: Open TG-GATES - Regimen: Single
# Assay type: toxicity, organism-based, Sprague-Dawley
# Design: regimen Single, gender Male, age 6 weeks
# Conditions: in vivo, po, 24 h, route gavage; for Bas / Eos / Hb / Ht / Lym / MCH / MCHC / MCV / Mono / Neu / Plat / RBC / Ret / WBC: tissue Blood; for KIDNEY_L / KIDNEY_R / KIDNEY_TOTAL: tissue Kidney; for LIVER: tissue Liver; for A/G / ALP / ALT / AST / BUN / CRE / Ca / Cl / DBIL / GLC / IP / K / LDH / Na / PL / RALB / TBIL / TC / TG / TP / gamma-GTP: tissue Plasma
structure (smiles),measurement,setting,value
O=[N+]([O-])c1ccc2c(c1)Cc1ccccc1-2 [2-NITROFLUORENE],TERMINAL_BW,"0 mg/kg, dose level Control",226.9 g
same,Bas,"0 mg/kg, dose level Control",0%
same,Eos,"0 mg/kg, dose level Control",0.8%
same,Hb,"0 mg/kg, dose level Control",12.7 g/dL
same,Ht,"0 mg/kg, dose level Control",38.9%
same,Lym,"0 mg/kg, dose level Control",78.4%
same,MCH,"0 mg/kg, dose level Control",20.5 pg
same,MCHC,"0 mg/kg, dose level Control",32.5%
same,MCV,"0 mg/kg, dose level Control",63.1 fL
same,Mono,"0 mg/kg, dose level Control",3.2%
same,Neu,"0 mg/kg, dose level Control",16.8%
same,Plat,"0 mg/kg, dose level Control",121 x10_4/uL
same,RBC,"0 mg/kg, dose level Control",618 x10_4/ul
same,Ret,"0 mg/kg, dose level Control",8.6%
same,WBC,"0 mg/kg, dose level Control",96.1 x10_2/uL
same,KIDNEY_L,"0 mg/kg, dose level Control",0.9 g
same,KIDNEY_R,"0 mg/kg, dose level Control",0.9 g
same,KIDNEY_TOTAL,"0 mg/kg, dose level Control",1.9 g
same,LIVER,"0 mg/kg, dose level Control",10.2 g
same,A/G,"0 mg/kg, dose level Control",1.1
same,ALP,"0 mg/kg, dose level Control",1444.8 IU/L
same,ALT,"0 mg/kg, dose level Control",41.6 IU/L
same,AST,"0 mg/kg, dose level Control",69.6 IU/L
same,BUN,"0 mg/kg, dose level Control",16.6 mg/dL
same,CRE,"0 mg/kg, dose level Control",0.2 mg/dL
same,Ca,"0 mg/kg, dose level Control",10.7 mg/dL
same,Cl,"0 mg/kg, dose level Control",104.2 meq/L
same,DBIL,"0 mg/kg, dose level Control",0.006 mg/dL
same,GLC,"0 mg/kg, dose level Control",193.2 mg/dL
same,IP,"0 mg/kg, dose level Control",6.8 mg/dL
same,K,"0 mg/kg, dose level Control",4.1 meq/L
same,LDH,"0 mg/kg, dose level Control",153.2 IU/L
same,Na,"0 mg/kg, dose level Control",141.1 meq/L
same,PL,"0 mg/kg, dose level Control",149 mg/dL
same,RALB,"0 mg/kg, dose level Control",2.8 g/dL
same,TBIL,"0 mg/kg, dose level Control",0 mg/dL
same,TC,"0 mg/kg, dose level Control",79.8 mg/dL
same,TG,"0 mg/kg, dose level Control",105.8 mg/dL
same,TP,"0 mg/kg, dose level Control",5.4 g/dL
same,gamma-GTP,"0 mg/kg, dose level Control",0.7 IU/L
same,TERMINAL_BW,"100 mg/kg, dose level Low",220.2 g
same,Bas,"100 mg/kg, dose level Low",0%
same,Eos,"100 mg/kg, dose level Low",0.2%
same,Hb,"100 mg/kg, dose level Low",12.8 g/dL
same,Ht,"100 mg/kg, dose level Low",39.6%
same,Lym,"100 mg/kg, dose level Low",79.6%
same,MCH,"100 mg/kg, dose level Low",20.4 pg
same,MCHC,"100 mg/kg, dose level Low",32.5%
same,MCV,"100 mg/kg, dose level Low",62.8 fL
same,Mono,"100 mg/kg, dose level Low",3.6%
same,Neu,"100 mg/kg, dose level Low",15.4%
same,Plat,"100 mg/kg, dose level Low",123.5 x10_4/uL
same,RBC,"100 mg/kg, dose level Low",631.6 x10_4/ul
same,Ret,"100 mg/kg, dose level Low",8.1%
same,WBC,"100 mg/kg, dose level Low",113.4 x10_2/uL
same,KIDNEY_L,"100 mg/kg, dose level Low",0.9 g
same,KIDNEY_R,"100 mg/kg, dose level Low",1 g
same,KIDNEY_TOTAL,"100 mg/kg, dose level Low",1.9 g
same,LIVER,"100 mg/kg, dose level Low",10.1 g
same,A/G,"100 mg/kg, dose level Low",1.2
same,ALP,"100 mg/kg, dose level Low",1937 IU/L
same,ALT,"100 mg/kg, dose level Low",39.8 IU/L
same,AST,"100 mg/kg, dose level Low",82.2 IU/L
same,BUN,"100 mg/kg, dose level Low",15.6 mg/dL
same,CRE,"100 mg/kg, dose level Low",0.2 mg/dL
same,Ca,"100 mg/kg, dose level Low",10.5 mg/dL
same,Cl,"100 mg/kg, dose level Low",105.3 meq/L
same,DBIL,"100 mg/kg, dose level Low",0.02 mg/dL
same,GLC,"100 mg/kg, dose level Low",174.6 mg/dL
same,IP,"100 mg/kg, dose level Low",6.7 mg/dL
same,K,"100 mg/kg, dose level Low",4.3 meq/L
same,LDH,"100 mg/kg, dose level Low",259.2 IU/L
same,Na,"100 mg/kg, dose level Low",139.7 meq/L
same,PL,"100 mg/kg, dose level Low",124.6 mg/dL
same,RALB,"100 mg/kg, dose level Low",2.8 g/dL
same,TBIL,"100 mg/kg, dose level Low",0.012 mg/dL
same,TC,"100 mg/kg, dose level Low",64.2 mg/dL
same,TG,"100 mg/kg, dose level Low",64.7 mg/dL
same,TP,"100 mg/kg, dose level Low",5.2 g/dL
same,gamma-GTP,"100 mg/kg, dose level Low",0.7 IU/L
same,TERMINAL_BW,"300 mg/kg, dose level Middle",216.7 g
same,Bas,"300 mg/kg, dose level Middle",0%
same,Eos,"300 mg/kg, dose level Middle",0.4%
same,Hb,"300 mg/kg, dose level Middle",13.1 g/dL
same,Ht,"300 mg/kg, dose level Middle",40.4%
same,Lym,"300 mg/kg, dose level Middle",73.4%
same,MCH,"300 mg/kg, dose level Middle",20.4 pg
same,MCHC,"300 mg/kg, dose level Middle",32.6%
same,MCV,"300 mg/kg, dose level Middle",62.6 fL
same,Mono,"300 mg/kg, dose level Middle",6%
same,Neu,"300 mg/kg, dose level Middle",18.2%
same,Plat,"300 mg/kg, dose level Middle",124.8 x10_4/uL
same,RBC,"300 mg/kg, dose level Middle",645 x10_4/ul
same,Ret,"300 mg/kg, dose level Middle",8.6%
same,WBC,"300 mg/kg, dose level Middle",91 x10_2/uL
same,KIDNEY_L,"300 mg/kg, dose level Middle",1 g
same,KIDNEY_R,"300 mg/kg, dose level Middle",1 g
same,KIDNEY_TOTAL,"300 mg/kg, dose level Middle",1.9 g
same,LIVER,"300 mg/kg, dose level Middle",9.6 g
same,A/G,"300 mg/kg, dose level Middle",1.2
same,ALP,"300 mg/kg, dose level Middle",1406.4 IU/L
same,ALT,"300 mg/kg, dose level Middle",35 IU/L
same,AST,"300 mg/kg, dose level Middle",83.2 IU/L
same,BUN,"300 mg/kg, dose level Middle",16.3 mg/dL
same,CRE,"300 mg/kg, dose level Middle",0.2 mg/dL
same,Ca,"300 mg/kg, dose level Middle",10.2 mg/dL
same,Cl,"300 mg/kg, dose level Middle",104.9 meq/L
same,DBIL,"300 mg/kg, dose level Middle",0.02 mg/dL
same,GLC,"300 mg/kg, dose level Middle",165.6 mg/dL
same,IP,"300 mg/kg, dose level Middle",7.7 mg/dL
same,K,"300 mg/kg, dose level Middle",4.5 meq/L
same,LDH,"300 mg/kg, dose level Middle",203 IU/L
same,Na,"300 mg/kg, dose level Middle",139.3 meq/L
same,PL,"300 mg/kg, dose level Middle",115.2 mg/dL
same,RALB,"300 mg/kg, dose level Middle",2.8 g/dL
same,TBIL,"300 mg/kg, dose level Middle",0.022 mg/dL
same,TC,"300 mg/kg, dose level Middle",61.2 mg/dL
same,TG,"300 mg/kg, dose level Middle",47.3 mg/dL
same,TP,"300 mg/kg, dose level Middle",5.2 g/dL
same,gamma-GTP,"300 mg/kg, dose level Middle",0.7 IU/L
same,TERMINAL_BW,"1000 mg/kg, dose level High",211.8 g
same,Bas,"1000 mg/kg, dose level High",0%
same,Eos,"1000 mg/kg, dose level High",0.4%
same,Hb,"1000 mg/kg, dose level High",13.6 g/dL
same,Ht,"1000 mg/kg, dose level High",41.6%
same,Lym,"1000 mg/kg, dose level High",79.4%
same,MCH,"1000 mg/kg, dose level High",21 pg
same,MCHC,"1000 mg/kg, dose level High",32.7%
same,MCV,"1000 mg/kg, dose level High",64.2 fL
same,Mono,"1000 mg/kg, dose level High",4%
same,Neu,"1000 mg/kg, dose level High",15.6%
same,Plat,"1000 mg/kg, dose level High",127.8 x10_4/uL
same,RBC,"1000 mg/kg, dose level High",647.8 x10_4/ul
same,Ret,"1000 mg/kg, dose level High",8.3%
same,WBC,"1000 mg/kg, dose level High",75.6 x10_2/uL
same,KIDNEY_L,"1000 mg/kg, dose level High",0.9 g
same,KIDNEY_R,"1000 mg/kg, dose level High",0.9 g
same,KIDNEY_TOTAL,"1000 mg/kg, dose level High",1.8 g
same,LIVER,"1000 mg/kg, dose level High",9.6 g
same,A/G,"1000 mg/kg, dose level High",1.1
same,ALP,"1000 mg/kg, dose level High",1276 IU/L
same,ALT,"1000 mg/kg, dose level High",29.8 IU/L
same,AST,"1000 mg/kg, dose level High",74.4 IU/L
same,BUN,"1000 mg/kg, dose level High",12.8 mg/dL
same,CRE,"1000 mg/kg, dose level High",0.1 mg/dL
same,Ca,"1000 mg/kg, dose level High",10.3 mg/dL
same,Cl,"1000 mg/kg, dose level High",104.8 meq/L
same,DBIL,"1000 mg/kg, dose level High",0.008 mg/dL
same,GLC,"1000 mg/kg, dose level High",183.8 mg/dL
same,IP,"1000 mg/kg, dose level High",7.6 mg/dL
same,K,"1000 mg/kg, dose level High",4.1 meq/L
same,LDH,"1000 mg/kg, dose level High",313.2 IU/L
same,Na,"1000 mg/kg, dose level High",141 meq/L
same,PL,"1000 mg/kg, dose level High",112.4 mg/dL
same,RALB,"1000 mg/kg, dose level High",2.9 g/dL
same,TBIL,"1000 mg/kg, dose level High",0.01 mg/dL
same,TC,"1000 mg/kg, dose level High",57.2 mg/dL
same,TG,"1000 mg/kg, dose level High",47.6 mg/dL
same,TP,"1000 mg/kg, dose level High",5.5 g/dL
same,gamma-GTP,"1000 mg/kg, dose level High",0.8 IU/L
